Experimental findings from patent US11192849B2, “Compounds, compositions, and methods for modulating ferroptosis and treating excitotoxic disorders” (THE TRUSTEES OF COLUMBIA UNIVERSITY IN THE CITY OF NEW YORK, priority 2013, dated 2021) are described below.

Non-standard residues stand in square brackets, D forms with d. Residues, ends and D or L forms follow the SMILES beside them. *: point of attachment. Nle = CCCC[C@H](N)C(=O)O; Cbz = O=C(OCc1ccccc1)*; CH2F = FC*

Assay [1] concerns HT-1080, BJeLR and Calu-1 cells. Kind of assay: Modulatory profiling of cell death inhibitors against erastin. Type of assay: cell-based, human. As to conditions: erastin 10 μM, 24 hours; 10-point, 4-fold dilution series. How it is done:
The day before the experiment, cells were seeded in black, 384-well clear bottom plates (Corning) at a density of 1,000 cells/well using a Beckman Biomek FX Workstation. All compounds (except 3-methyladenine and chloroquine, which were diluted in water) were diluted in DMSO at 250 times the final highest test concentration, and aliquoted across a 384-well plate (Greiner, Monroe, N.C.). A ten-point, 4-fold dilution series of each inhibitor in DMSO was made using a multichannel pipette. Replicates of this mother plate were stored at −20° C. […] Medium was removed from cells and replaced with 36 μL medium containing DMSO (0.1%) or erastin (10 μM final concentration). Using the Biomek FX, 4 μL were then transferred from each inhibitor daughter plate into the DMSO-containing or erastin-containing assay plates. For 3-methyladenine and chloroquine, inhibitors were prepared fresh in media at 10-fold the final concentration in the presence of DMSO or 10 μM erastin. These solutions were manually pipetted onto cells in 384-well format. Assay plates were incubated at 37° C. for 24 hours. Viability was assessed using Alamar Blue.
The modulatory effect (Me) for drug-drug interactions was computed as follows. First, plate-based background correction was performed using Alamar Blue values from empty (cell-free) wells included on each plate. Next, within each experiment, 100% viability is determined as the average Alamar Blue score for cells treated with modulator=DMSO and lethal=DMSO, and all Alamar Blue values were scaled from 0 to 1 with the DMSO×DMSO condition=1. The individual effects of each modulator and lethal (e.g. in the presence of DMSO) at all tested doses were then ascertained. […] Next, BExp was compared to the actual observed viability. […] By default, Me in DMSO-treated cells is equal to 0. […] Me values for each inhibitor-lethal drug combination were hierarchically clustered and plotted as a heatmap using the heatmaps.2 function of the gplots library in R.

Assay [2] relates to HT-1080 cells. Kind of assay: Inhibition of erastin (10 μM)-induced death in HT-1080 cells (Alamar Blue). Type of assay: cell-based, human. As to conditions: added up to 6 hours after erastin. The essentials:
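HT-1080 cells (1,000/well) were treated next day with 10 μM erastin plus a compound dilution series for 24 h. Alamar Blue (10% final) was then added for 6 h and fluorescence read at ex/em 530/590.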

Assay [3] deals with HT-1080 cells. Kind of assay: Cytosolic and lipid ROS production (H2DCFDA, C11-BODIPY flow cytometry) in HT-1080 cells. Type of assay: cell-based, human. To be noted: erastin (10 μM). How it is done:
The day before the experiment, 200,000 cells/well were seeded in 6-well dishes (Corning Inc., Corning, N.Y.). The day of the experiment, cells were treated with test compounds for the indicated times, then harvested by trypsinization, resuspended in 500 μL Hanks Balanced Salt Solution (HBSS, Gibco, Invitrogen Corp., Carlsbad, Calif.) containing either H2DCFDA (25 μM), C11-BODIPY(581/591) (2 μM) or MitoSOX (5 μM) (all from Molecular Probes, Invitrogen) and incubated for 10 minutes at 37° C. in a tissue culture incubator. Cells were then resuspended in 500 μL of fresh HBSS, strained through a […] cell strainer (BD Falcon, BD Biosciences, San Jose, Calif.), and analyzed using a flow cytometer (FACSCalibur or Accuri C6, BD Biosciences), which was equipped with 488-nm laser for excitation. Data was collected from the FL1 (H2DCFDA, C11-BODIPY) or FL2 channel (MitoSOX). A minimum of 10,000 cells were analyzed per condition.
A general note: Flow cytometry measures light scatter and fluorescence of single cells or particles in a stream.

The subject of another assay is Calu-1 cells. Kind of assay: Erastin-induced ferroptosis in Calu-1 cells, NOX pathway inhibitors. Type of assay: cell-based, human. Here is the method:
Cell viability was typically assessed in 384-well format by Alamar Blue (Invitrogen) fluorescence (ex/em 530/590) measured on a Victor3 platereader (Perkin Elmer, Waltham, Mass.). In some experiments, Trypan Blue dye exclusion counting was performed using an automated cell counter (ViCell, Beckman-Coulter Inc., Brea, Calif.). Cell viability in test conditions is reported as a percentage relative to the negative control treatment.

For assay [4], the system named is rat organotypic hippocampal slice culture (OHSC). Kind of assay: Glutamate excitotoxic injury in organotypic hippocampal slice cultures (PI uptake). The format is cell-based. As to conditions: 5 mM L-glutamate 3 hours; Fer-1 2 μM, CPX 5 μM, MK-801 10 μM; 24 hours. Here is the method:
OHSCs were cultured as previously described (Morrison et al., 2002) with approval from Columbia University's Institutional Animal Care and Use Committee (IACUC). Briefly, Sprague Dawley rat pups (P8-P10) were rapidly decapitated, and the hippocampus placed in ice-cold Gey's balanced salt solution (Sigma). 400 μm thick sections were cut using a Mcllwain tissue chopper and immediately plated on Millicell cell culture inserts (Millipore, Billerica, Mass.) in Neurobasal (Invitrogen) media supplemented with B27 (1×, Invitrogen), GlutaMAX (1 mM, Invitrogen), and D-glucose (4.5 mg/mL, Sigma) at 37° C. and 5% CO2. After 2 days in vitro (DIV), the media was changed to medium containing serum comprised of 50% DMEM (Sigma), 25% heat-inactivated horse serum (Sigma), 25% Hank's balanced salt solution (Sigma), GlutaMAX (1 mM, Invitrogen), and D-glucose (4.5 mg/mL, Sigma). Medium was changed every 2-3 days.
After 10-14 DIV, OBSCs were exposed to an excitotoxic injury consisting of a 3 hour exposure to 5 mM L-glutamate in SFM (Morrison et al., 2002). […] After the 3 hour exposure, the cultures were placed in fresh serum free media (SFM) containing 75% DMEM, 25% Hank's balanced salt solution, GlutaMAX (1 mM), D-glucose (4.5 mg/mL) until cell death was quantified at 24 hours. […]
Quantification of cell death has been described previously (Cater et al., 2007; Morrison et al., 2002). […] Percentage cell death was expressed as the number of pixels in the ROI above a threshold in the PI fluorescent image divided by the total number of pixels in the ROI.
OHSCs were treated with a lethal excitotoxic stimulus (5 mM L-glutamate, 3 hours) that mimics the consequences of stroke and neurodegenerative disease (Morrison et al., 2002; Sundstrom et al., 2005) (FIG. 5A). […] The effects of these compound treatments on propidium iodide (PI) uptake were analyzed, as an indicator of cell death, 24 hours following the end of glutamate treatment, in 3 defined regions of the OHSCs: the dentate gyrus (DG), the CA1 and the CA3 fields of the hippocampus.

The target in the next assay is T1, system xc− (Homo sapiens, UniProt Q9UPY5).
T1 construct: endogenous in cells; host or cells: HT-1080 cells (ATCC)
T1 sequence (Q9UPY5 1-501): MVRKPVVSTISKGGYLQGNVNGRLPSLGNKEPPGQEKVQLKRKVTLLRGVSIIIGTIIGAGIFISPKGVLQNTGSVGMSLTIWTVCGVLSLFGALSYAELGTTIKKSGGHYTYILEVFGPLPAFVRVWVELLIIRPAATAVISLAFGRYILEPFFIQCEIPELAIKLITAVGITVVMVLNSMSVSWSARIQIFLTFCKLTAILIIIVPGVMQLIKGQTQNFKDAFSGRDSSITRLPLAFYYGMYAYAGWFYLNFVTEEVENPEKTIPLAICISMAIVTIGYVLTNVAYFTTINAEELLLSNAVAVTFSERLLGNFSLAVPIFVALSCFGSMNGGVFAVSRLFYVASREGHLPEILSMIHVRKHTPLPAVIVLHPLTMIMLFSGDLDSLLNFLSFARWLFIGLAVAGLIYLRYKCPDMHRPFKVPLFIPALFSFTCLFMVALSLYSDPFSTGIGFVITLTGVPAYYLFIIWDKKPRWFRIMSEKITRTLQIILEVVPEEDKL
T1 sequence (P08195 1-529 partner): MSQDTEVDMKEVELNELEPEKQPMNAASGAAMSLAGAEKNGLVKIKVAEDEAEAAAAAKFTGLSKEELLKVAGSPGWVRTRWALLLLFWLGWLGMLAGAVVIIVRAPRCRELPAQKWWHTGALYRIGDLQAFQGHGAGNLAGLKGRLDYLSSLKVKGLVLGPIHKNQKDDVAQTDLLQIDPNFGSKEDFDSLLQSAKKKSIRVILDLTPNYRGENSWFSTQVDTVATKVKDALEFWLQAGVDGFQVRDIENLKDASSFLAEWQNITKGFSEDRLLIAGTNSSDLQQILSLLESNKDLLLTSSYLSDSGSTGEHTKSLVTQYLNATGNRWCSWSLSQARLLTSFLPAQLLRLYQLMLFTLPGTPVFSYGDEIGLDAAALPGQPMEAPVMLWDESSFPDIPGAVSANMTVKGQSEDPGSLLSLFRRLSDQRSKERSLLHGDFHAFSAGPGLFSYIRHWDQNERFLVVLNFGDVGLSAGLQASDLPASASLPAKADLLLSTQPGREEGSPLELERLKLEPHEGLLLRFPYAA
Kind of assay: [14C]Cystine uptake assay in HT-1080 cells. The format is cell-based. To be noted: Erastin 10 μM, glutamate 50 mM, SAS 1 mM. Here is the method: 200,000 HT-1080 cells/well were seeded overnight in 6-well dishes (Corning). […] At this point, in each well the buffer was replaced with 600 μL uptake buffer containing compound and 0.12 μCi (80-110 mCi/mmol) of L-[3,3′-^14C]-cystine (Perkin Elmer) and incubated for 3 minutes at 37° C. Cells were then washed three times with ice-cold uptake buffer and lysed in 500 μL 0.1 M NaOH. To this lysate was added 15 mL of scintillation fluid and radioactive counts per minute were obtained using a scintillation counter. All measurements were performed in triplicate for each condition.

Consider `CCOC(=O)[C@H]1O[C@@H]1C(=O)N[C@@H](CC(C)C)C(=O)NCCC(C)C` (relative stereo) [Compound E64d, (2S,3S)-trans-epoxysuccinyl-L-leucylamido-3-methylbutane ethyl ester], for which, in assay [1], the “modulation of erastin-induced death” value is recorded as “not consistently modulated”.
The same measure, in the same setting: the same measure for `Cn1cnc(N)c2ncnc1-2` [3-methyladenine]: “not consistently modulated”.
Consider `CCCC[C@@H](C=O)NC(=O)[C@H](CC(C)C)NC(=O)[C@H](CC(C)C)NC(C)=O` [ALLN, N-Acetyl-Leu-Leu-Nle-CHO] (Ac-Leu-Leu-[Nle]-aldehyde), for which the “modulation of erastin-induced death” value in assay [1] was “not consistently modulated”.
On the same count and under the same terms, for `C[C@@H]1C[C@@H]([C@H](O)CC2CC(=O)NC(=O)C2)C(=O)[C@@H](C)C1` [CHX, cycloheximide] the value was “to a weaker extent”.
On to `N#CC(=C(N)Sc1ccccc1N)C(C#N)=C(N)Sc1ccccc1N` [Compound U0126, 1,4-diamino-2,3-dicyano-1,4-bis (2-aminophenylthio)butadiene], for which, in the assay with HT-1080 cells [2], the “protection when added after erastin” value is on record as “substantial protection from death”. Further, in the assay on HT-1080 cells [3], the “effect of inhibitor on erastin-induced ROS accumulation” value is recorded as “prevented the accumulation of H2DCFDA-sensitive ROS”. Also, the “modulation of erastin-induced death” value in assay [1] is given as “rescued from erastin-induced death”.
As for `c1ccc2c(c1)[I+]c1ccccc1-2` [DPI, diphenylene iodonium], the “suppression of erastin-induced ferroptosis” value in the assay on Calu-1 cells is recorded as “strongly suppressed”.
Consider `C[C@]12N[C@H](Cc3ccccc31)c1ccccc12` [MK-801], for which the “glutamate-induced cell death (PI uptake) in DG, CA1, CA3” value in assay [4] was “attenuated significantly”.
Turning to `O=C(O)c1cc(/N=N/c2ccc(S(=O)(=O)Nc3ccccn3)cc2)ccc1O` [SAS, sulfasalazine], on system xc−, the “Na+-independent uptake of [14C]cystine” value is on record as “abolished”.
In the case of `CO/C1=C\C(C)=C\[C@@H](C)[C@@H](O)[C@@H](C)C/C(C)=C/C=C/[C@H](OC)[C@@H]([C@@H](C)[C@@H](O)[C@H](C)[C@@]2(O)C[C@@H](O)[C@H](C)[C@@H](C(C)C)O2)OC1=O` [bafilomycin A1], in assay [1], the “modulation of erastin-induced death” value is “not consistently modulated”.
Consider `CCN(CC)CCCC(C)Nc1ccnc2cc(Cl)ccc12` (centres unmarked) [chloroquine], for which the “modulation of erastin-induced death” value in assay [1] is listed as “not consistently modulated”.
On to `N[C@@H](CCC(=O)O)C(=O)O` [glutamate], for which the “Na+-independent uptake of [14C]cystine” value on system xc− is on record as “abolished”.
With `Cc1c(C)c2c(c(C)c1O)CCC(C)(C(=O)O)O2` (centres unmarked) [trolox, 6-hydroxy-2,5,7,8-tetramethylchroman-2-carboxylic acid], the “protection when added after erastin” value in the assay on HT-1080 cells [2] was “substantial protection from death”. The “effect of inhibitor on erastin-induced ROS accumulation” value in the assay with HT-1080 cells [3] was “prevented the accumulation of H2DCFDA-sensitive ROS”. Moreover, in assay [1], the “modulation of erastin-induced death” value is listed as “rescued from erastin-induced death”.
In the case of `COC(=O)CC(NC(=O)C(C)NC(=O)C(NC(=O)OCc1ccccc1)C(C)C)C(=O)CF` (stereo not drawn) [z-VAD-fmk, carbobenzyloxy-valyl-alanyl-aspartyl-[O-methyl]-fluoromethylketone] (Cbz-Val-Ala-Asp(OMe)-CH2F; configuration not given here), the “modulation of erastin-induced death” value in assay [1] is “not consistently modulated”.
